From patent publication US20020086027A1, “Composition and method for enhancing immunological memory response” (priority 1998, published 2002)

Legend:
[1] = system: human T cells; test: Primary alloproliferative response of responder PBMCs to irradiated MHC-mismatched stimulator PBMCs ([3H]thymidine incorporation); assay type: cell-based
Protocol: In this system, we have used responses to first exposure as an indication of primary responses. When cells stimulated in this fashion are rested in culture and then restimulated with the same stimulator PBMCs, the 'recall' response measured are taken as an indication of immune memory. Proliferation is measured by the incorporation of radioactive tritiated thymidine in dividing cells. PBMCs from HLA-mismatched individuals were separated using density-gradient centrifugation on Ficoll-Paque (Pharmacia, Uppsala, Sweden). Stimulator PBMCs were used in titrated doses after g-irradiation (200 rads). For the primary proliferative alloresponses, stimulator in graded doses were used with 1-3×10^5 responders per well in 200 μl of RPMI-1640 (Life Technologies, Grand Island, N.Y.) fortified with L-glutamine (Life Technologies) and antibiotics, containing 10% heat-inactivated responder autologous serum. Cultures were incubated in a CO2 atmosphere for five days, pulsed with 0.5 uCi of (H^3)-thymidine (New England Nuclear, Boston, Mass.) for the last 8-12 hours of the assay and harvested onto glass fiber filters for counting cell-incorporated thymidine (Betaplate; Wallac, Finland). results are expressed as mean cpm±SE for triplicate cultures. Dibutyryl cyclic AMP (dbcAMP), pentoxifylline (POX), aphidicolin (all from Sigma Chemical Co., St Louis, Mo.) and recombinant IL-2 (Boehringer Manheim Corp., Manheim Germany) were added singly or together to the culture in various doses as indicated during priming and in primary alloresponse assays. […] Sigma Chemical Co.) at room temperature for 20 minutes, washed extensively and used. PBMCs from MHC-mismatched donors were used as responder-stimulator pairs. Stimulator cells were used after γ-irradiation (200 rad) at various concentrations, as shown. Proliferation assays were set up as parallel cultures and were pulsed and harvested as below on different days when necessary for the analyses of the kinetics of the response. Where appropriate, cyclosporin A (CsA, Sandoz, Milan, Italy), aphidicolin (Aph, Sigma Chemical Co., and/or pentoxifylline ([…], Sigma Chemical Co.) Were added at the concentrations indicated, or PFA-fixed PBMCs were used. The plated were pulsed with 0.5 to 1 μCi of (^3H)thymidine ([^3H]TdR. Amersham, Little Chalfont, U.K.) During the last 12 to 16 h of the assay (4 days for a recall assay and 6 days for a primary assay, unless indicated otherwise). [^3H] TdR incorporation was measured by harvesting the cultures on glass-fibers and counting in a scintillation counter (Betaplate: LKB-Pharmacia. Uppsala, […]). The results are expressed as mean cpm±SE of triplicate cultures.

[2] = system: human T cells; test: Response of primed cells to IL-2 or PHA; assay type: cell-based; settings: for response of primed cells to PHA: primed in presence vs absence of 100 ug/ml drug
Protocol: For priming in vitro, responder PBMCs were incubated for 72 or 144 h at a ratio of either 1:1 or 2:1 respectively, with stimulator PBMCs. Where appropriate, CsA. Aph. and/or Trental were added at the concentrations indicated, of PFA-fixed PBMCs were used instead.

[3] = system: human T cells; test: Cytokines in culture (IL-2 in supernatants, IFN-γ during recall); assay type: cell-based
Source text: Such possibilities make it plausible that signal-transduction pathways can be identified that differentially affect the commitment of responding T cells to the effector vs the memory pathways. […] It was of interest to look at the role of IL-2 in these events. […] Yet, the recall responses of cells primed under cover of […] are far higher than those of cells primed without […]). In fact, if […] is used in a situation in which T cell proliferation is abrogated by Aph it still enhances the response capability of primed T cells (FIG. 9). […] The enhancement in the magnitude of the secondary response caused by the presence of […] during priming is not simply the result of altered kinetics or response either (FIG. 11), but an actual increase. Clearly […] affects T cell priming such that commitment to memory is enhanced at the cost of effector responses, independent of its on T cell proliferation. […] (data not shown).

[4] = system: CD25+ primed T cells; test: Propidium iodide staining for apoptosis of CD25+ primed T cells; assay type: cell-based, human; settings: over the 48 hour rest period after priming with drug
Protocol: For analysis of cell surface markers, primed cell populations separated on Ficoll-Paque gradients were used. […] Briefly, 1-3×10^5 cells per well were stained with primary antibodies at 4° C., followed by appropriately labeled secondary reagents if required. Samples were analyzed using a Bryte flow cytometer (bio-Rad, Hemel Hampstead, UK). Antibodies to the T cell markers CD3 (OKT3), CD4 (OKT4), and to the activation markers CD25 and Fas (CD95) were used for staining. To detect apoptosis using propidium iodide (PI, Sigma Chemical Co.), antibody-stained cells were fixed and permeabilized with 70% ethanol, washed, and PI […] added just before cytometric analysis. Data were analyzed using FlowJo software (Treestar, San Jose, Calif.).
The differences between the kinetics of CD25 expression over two days of rest culture prompted the question of whether this was linked to effects of POX on the survival of T cells activated during priming. Almost all CD25^+ cells generated during priming were CD4 T cells (FIG. 17A). therefore, responder populations primed variously were stained in a two-color flow cytometric analysis for CD25 and Fas, since Fas engagement is involved in activation induced T cell death. The frequency and level of Fas expression in the CD25^+ population was unchanged in the presence (FIG. 20, panels B and D) or absence (panels A and C) of POX during priming. […]

[5] = system: antigen-specific T cell memory; test: Mice immunized with ovalbumin without adjuvant, splenic T cell recall proliferation; assay type: in vivo; settings: POX 1 mg per mouse per day, day -1 to day 5
Protocol: Splenic cells were stimulated in vitro either on day 7 or on day 60 after immunization with titrated doses of ovalbumin for 4 days and pulsed with 3H-thymidine for 16 h before being harvested for scintillation spectrometry In the second system used to validate the memory-enhancing effects of POX, we have used immunization with a very poor immunogen, egg albumin without adjuvant.

CC(=O)CCCCn1c(=O)c2c(ncn2C)n(C)c1=O [POX, pentoxifylline]
primary proliferative response ([1]; Trental 100 ug/ml added to cells on 1 μg/ml Aph): further decreases
kinetics of primary response ([1]; days 4-10, drugs present throughout): declines equivalently
primary proliferative response ([1]; drug 100 ug/ml present during primary alloresponse): declines
primary proliferative response ([1]; drug 100 ug/ml present during primary alloresponse, listed as Trental): reduced significantly
primary response after drug removal ([1]; drugs removed on day 6, pulsed days 8 and 10): no increase
primary proliferative response ([1]; increasing doses 1-300 μg/ml, preliminary titrations): decrease
primary response to PF-fixed PBMCs ([1]; stimulators fixed with 0.05% PF, POX 100 ug/ml): not enhanced
response of primed cells to IL-2 ([2]; primed in presence vs absence of 100 μg/ml Trental): to the same extent
response of primed cells to PHA [2]: does not bring about any enhancement
response of primed cells to PHA ([2]; listed as Trental): comparable
IL-2 in culture supernatants ([3]; Trental 100 μg/ml treated cultures): do not find detectable levels
levels of IFN-γ produced during recall ([3]; primed in presence vs absence of Trental): not different
proportion of apoptotic cells in the CD25+ population [4]: does not increase significantly
T cell memory recalled ([5]; day 7 post-immunization): higher
T cell memory recalled ([5]; day 60 post-immunization): dramatically high
